Laboratory results as given in EP0735879B1, “USE OF AMINO CYCLODEXTRINS FOR THE AQUEOUS SOLUBILISATION OF DIBENZAZEPINES FOR USE AS AN ANTIEPILEPTIC AGENT” (COMMISSARIAT A L'ENERGIE ATOMIQUE, priority 1993, dated 1995).
In brackets after ≈: the same amount, converted by molar mass. Several values for one entry are separate records, joined by “and”; a condition that tells them apart may be missing. Identical values can stand only once.

What was measured:
physchem = assay type: physicochemical; conditions: 25°C, read-out: solubilité de la carbamazépine
Protocol: Dans cet exemple on évalue la solubilisation de la carbamazépine par différents dérivés de cyclodextrines dans des conditions standardisées. Les mesures de solubilité sont réalisées à 25°C en présence de la cyclodextrine considérée à la concentration de 25 mmol/l, le pH de la solution étant ajusté dans tous les cas à 7,4 pour simuler autant que posible les conditions physiologiques.

[1] = 25°C; cited from earlier work
in vitro = conditions: human, erythrocytes, pH 7
Protocol: Les propriétés hémolytiques du chlorhydrate ont été testées en mettant en contact 0,4 ml d'une suspension d'érythrocytes humains avec 4 ml de la solution du chlorhydrate dans 10 mmol d'un tampon phosphate isotonique à un pH de 7,4, pendant 30 minutes à 37°C.

[2] = Solubility in water of the cyclodextrin; assay type: physicochemical; conditions: 20°C, read-out: solubilité dans l'eau
[3] = pH of an aqueous solution of the hydrochloride; assay type: physicochemical; conditions: solution à 1 % en poids du chlorhydrate dans de l'eau
[4] = tested on: rat Sprague-Dawley mâle et femelle; test: Acute toxicity, intravenous injection; assay type: in vivo; conditions: voie intraveineuse, chlorhydrate, 2g/kg de poids corporel
Escherichia Coli = test: Ames test, mutagenicity; assay type: cell-based; conditions: test de AMES, souches d'Escherichia Coli
Salmonella typhimurium = test: Ames test, mutagenicity; assay type: cell-based; conditions: test de AMES, souches de Salmonella typhimurium

Compound: NC(=O)N1c2ccccc2C=Cc2ccccc21 [Carbamazépine, carbamazépine]
- solubility (physchem; phosphate buffer, pH 7.4, aqueous buffer, Tampon Phosphate 7,4, without cyclodextrin): < 70 µM
- solubility (physchem; pure water, water, Eau pure, without cyclodextrin): < 50 µM
- solubilité dans l'eau pure [1]: 12 µg/mL

Compound: OC[C@H]1O[C@@H]2O[C@H]3[C@H](O)[C@@H](O)[C@@H](O[C@H]4[C@H](O)[C@@H](O)[C@@H](O[C@H]5[C@H](O)[C@@H](O)[C@@H](O[C@H]6[C@H](O)[C@@H](O)[C@@H](O[C@H]7[C@H](O)[C@@H](O)[C@@H](O[C@H]8[C@H](O)[C@@H](O)[C@@H](O[C@H]1[C@H](O)[C@H]2O)O[C@@H]8CO)O[C@@H]7CO)O[C@@H]6CO)O[C@@H]5CO)O[C@@H]4CO)O[C@@H]3CO [β-CD, β-cyclodextrine, reference compound]
- HC50 at 0.5 h (in vitro): 5 mM and ~6000 µg/mL

Compound: NC[C@H]1O[C@@H]2O[C@H]3[C@H](O)[C@@H](O)[C@@H](O[C@H]4[C@H](O)[C@@H](O)[C@@H](O[C@H]5[C@H](O)[C@@H](O)[C@@H](O[C@H]6[C@H](O)[C@@H](O)[C@@H](O[C@H]7[C@H](O)[C@@H](O)[C@@H](O[C@H]8[C@H](O)[C@@H](O)[C@@H](O[C@H]1[C@H](O)[C@H]2O)O[C@@H]8CO)O[C@@H]7CO)O[C@@H]6CO)O[C@@H]5CO)O[C@@H]4CO)O[C@@H]3CO [β-CD-NH2, mono-6-amino-β-cyclodextrine]
- solubility [2]: 200 mg/mL (≈ 176 mM)
- pH [3]: 6,8
- mortalité [4]: aucune mortalité
- activité mutagène (Escherichia Coli): aucune activité mutagène
- activité mutagène (Salmonella typhimurium): aucune activité mutagène
- HC50 at 0.5 h (in vitro): ~30 mM and ~35000 µg/mL
